Data on eleven compounds can be found in PubChem BioAssay AID540252 (Sanford-Burnham Center for Chemical Genomics, 2011).

Activity calls are given as the source filed them. No rule for the calls is given here.

The target in the assay is glucose-6-phosphate dehydrogenase-6-phosphogluconolactonase (Plasmodium falciparum 3D7). The experiment in a line: PfG6PD enzyme inhibitors, direct NADPH readout, dose response, orthogonal assay, biochemical, end-point NADPH detection (AID 540252). To be noted: purified PfG6PD enzyme.
One may read the IC50 as the concentration needed to halve the response being measured. For `CC(C)(C)NC(=O)COc1ccc(CNc2ccc3[nH]c(=O)[nH]c3c2)cc1`, the IC50 is > 80 µM (inactive).

On to `O=c1[nH]nc(CNc2ccc(O)cc2)c2ccccc12`, for which the IC50 is > 80 µM (inactive).

For the compound `O=C1C=CC(=O)N1c1ccc(N2CCCCC2)cc1`, the IC50 is 38 µM.

As for `O=C1C(=Cc2cccc(O)c2O)SC(=S)N1CCCN1CCOCC1`, the IC50 was 44.3 µM.

Consider `O=C(CCc1ccc(S(=O)(=O)N2CCOCC2)cc1)N/N=C/c1ccc(O)c(O)c1O`, for which the IC50 was > 80 µM (inactive).

In the case of `C[C@H](NC(=O)c1cc2c(cn1)[nH]c1ccccc12)C(=O)O`, the IC50 was > 80 µM (inactive).

Consider `[O-]/[N+](=C\c1ccccc1)c1ccc(Br)cc1`, for which the IC50 is 66 µM.

With `Cc1cccc(C(=O)Nc2nnc(S(=O)(=O)N3CCOCC3)s2)c1`, the IC50 was > 80 µM (inactive).

As to `C/C(Cn1nnc([N+](=O)[O-])n1)=N\NC(=O)c1ccc(O)cc1`, the IC50 was > 80 µM (inactive).

For `COc1cc(CN2CCN(CCCc3ccccc3)C(CCO)C2)cc(OC)c1O` (stereo unspecified), the IC50 is > 80 µM (inactive).

For the compound `Cc1ccc(/C=C/C(=O)NCC2COc3ccccc3O2)o1` (stereo unspecified), the IC50 is > 80 µM (inactive).
